Peptide text beside a SMILES is read from it.
How the values were obtained:
Neprilysin [1] = target: T1, Neprilysin (Homo sapiens, UniProt P08473); test: Inhibition of human neprilysin
Neprilysin [2] = target: T1, Neprilysin; test: Inhibition of human recombinant neprilysin using Abz-dR-G-L-EDDnp as substrate incubated for 10 mins prior to substrate addition measured for 40 mins by fluorometry
Aminopeptidase N [3] = target: T2, Aminopeptidase N (Homo sapiens, UniProt P15144); test: Inhibition of human recombinant aminopeptidase N using Ala-Mca as substrate incubated for 10 mins prior to substrate addition measured for 40 mins by fluorometry
Aminopeptidase N [4] = target: T2, Aminopeptidase N; test: Inhibition of human aminopeptidase N

T2 sequence (P15144 whole entry): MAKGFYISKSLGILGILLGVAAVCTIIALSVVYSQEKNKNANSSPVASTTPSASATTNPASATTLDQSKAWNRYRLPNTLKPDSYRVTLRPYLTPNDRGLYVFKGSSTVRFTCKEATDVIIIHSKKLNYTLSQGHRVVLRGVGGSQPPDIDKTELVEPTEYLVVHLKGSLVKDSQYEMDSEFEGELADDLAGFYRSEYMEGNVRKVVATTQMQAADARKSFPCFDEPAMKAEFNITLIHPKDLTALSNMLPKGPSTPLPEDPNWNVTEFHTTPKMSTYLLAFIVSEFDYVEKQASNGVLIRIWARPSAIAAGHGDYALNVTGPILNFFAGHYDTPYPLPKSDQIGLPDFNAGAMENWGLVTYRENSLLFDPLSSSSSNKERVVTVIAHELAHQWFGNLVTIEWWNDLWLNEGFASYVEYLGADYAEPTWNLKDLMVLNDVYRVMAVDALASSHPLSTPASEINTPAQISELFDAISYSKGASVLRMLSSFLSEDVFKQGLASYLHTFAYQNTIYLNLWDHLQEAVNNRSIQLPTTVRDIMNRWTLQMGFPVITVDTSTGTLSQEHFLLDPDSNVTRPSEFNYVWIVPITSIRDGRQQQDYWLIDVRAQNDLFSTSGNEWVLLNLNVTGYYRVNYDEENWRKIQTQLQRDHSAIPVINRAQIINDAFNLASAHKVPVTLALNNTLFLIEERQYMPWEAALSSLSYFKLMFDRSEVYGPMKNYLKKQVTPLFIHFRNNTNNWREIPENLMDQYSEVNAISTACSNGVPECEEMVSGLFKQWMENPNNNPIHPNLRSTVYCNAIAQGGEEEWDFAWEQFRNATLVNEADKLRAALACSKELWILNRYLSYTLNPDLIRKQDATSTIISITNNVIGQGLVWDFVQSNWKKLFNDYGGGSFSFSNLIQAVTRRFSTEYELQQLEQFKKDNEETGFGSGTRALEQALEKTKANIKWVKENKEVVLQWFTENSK
T1 sequence (P08473 whole entry): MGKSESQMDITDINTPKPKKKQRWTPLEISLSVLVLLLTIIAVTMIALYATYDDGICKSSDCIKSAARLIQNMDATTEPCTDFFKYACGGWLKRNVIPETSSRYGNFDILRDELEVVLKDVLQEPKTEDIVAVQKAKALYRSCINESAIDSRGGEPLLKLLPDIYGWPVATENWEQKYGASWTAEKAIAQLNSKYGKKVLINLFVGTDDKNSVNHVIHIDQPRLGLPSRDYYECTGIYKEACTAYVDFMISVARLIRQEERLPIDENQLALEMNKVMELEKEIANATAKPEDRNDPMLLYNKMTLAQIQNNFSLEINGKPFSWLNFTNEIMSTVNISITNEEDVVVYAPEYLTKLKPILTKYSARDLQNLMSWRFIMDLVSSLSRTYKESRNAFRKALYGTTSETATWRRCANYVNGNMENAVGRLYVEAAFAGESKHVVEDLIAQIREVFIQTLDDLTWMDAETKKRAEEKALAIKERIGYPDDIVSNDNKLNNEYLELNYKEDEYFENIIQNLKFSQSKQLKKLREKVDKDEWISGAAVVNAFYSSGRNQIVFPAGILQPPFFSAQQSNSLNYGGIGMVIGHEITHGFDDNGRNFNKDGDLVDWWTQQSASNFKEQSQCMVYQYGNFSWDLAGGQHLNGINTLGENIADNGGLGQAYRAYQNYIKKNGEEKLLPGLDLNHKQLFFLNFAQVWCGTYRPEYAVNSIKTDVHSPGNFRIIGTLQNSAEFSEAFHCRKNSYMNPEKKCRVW

| Compound | IC50 (Neprilysin [1]) [µM] | IC50 (Neprilysin [2]) [µM] | IC50 (Aminopeptidase N [3]) [µM] | IC50 (Aminopeptidase N [4]) [µM] |
| --- | --- | --- | --- | --- |
| N=C(N)NCCC[C@H](NC(=O)[C@@H](N)CCC(N)=O)C(=O)N[C@@H](Cc1ccccc1)C(=O)N[C@@H](CO)C(=O)O [OPIORPHIN (1-4)] (H-QRFS-OH) | > 100 | – | – | – |
| N=C(N)NCCC[C@H](NC(=O)[C@H](CO)NC(=O)[C@H](Cc1ccccc1)NC(=O)[C@@H](N)CCCNC(=N)N)C(=O)O [OPIORPHIN (2-5)] (H-RFSR-OH) | 180 | – | – | – |
| H-FQRFSR-OH | – | 51 | 122 | – |
| H-NRFSR-OH | – | 130 | > 100 | – |
| H-QRFTR-OH | – | > 100 | > 100 | – |
| NC(N)=NCCC[C@H](NC(=O)[C@H](CO)NC(=O)[C@@H](N)Cc1ccccc1)C(=O)O [OPIORPHIN (3-5)] (H-Phe-Ser-Arg-OH) | 7 | – | – | 120 |

Source: ChEMBL document CHEMBL2029309, “Proposed Bioactive Conformations of Opiorphin, an Endogenous Dual APN/NEP Inhibitor” (ACS Med Chem Lett, 2012)
